Data published in patent US6914045B2, “Glycopeptide antibiotics” (Wyeth Holdings Corporation, priority 2001, dated 2005).
Converted amounts (≈) assume the structure as drawn.

Key:
Test in all cases: in vitro antibacterial evaluation, MIC by broth dilution
Format in all cases: cell-based
Streptococcus sp. = conditions: broth dilution, 18 hours at 35° C.
Outline: (§1)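 Following National Committee for Clinical Laboratory Standards recommendations (M7-A2), susceptibility was measured by dilution in Muller-Hinton II […]. Bacteria were seeded at 5×10^5 CFU/mL against compound concentrations from 64 down to 0.06 μg/mL.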

Enterococcus sp. = conditions: broth dilution, 18 hours at 35° C.
Outline: as §1

Staphylococcus sp. = conditions: broth dilution, 18 hours at 35° C.
Outline: as §1

Escherichia coli = conditions: 18 hours at 35° C.

CCCCN1CC(C(O)C2NC(=O)C(C(O)C3CNC(=N)N3)NC(=O)C(Cc3ccc(OC4OC(CO)C(OC5OC6COC7(OC6C(O)C5O)C5CC6CC(C5)CC7C6)C(O)C4O)cc3)NC(=O)C(C(C)c3ccccc3)NC(=O)CNC(=O)C(CO)NC2=O)N(C2OC(CO)C(O)C(O)C2O)C1=N (stereo not drawn) [Example 224]
MIC Streptococcus agalactiae (GC 4564) (Streptococcus sp.): <0.12 µg/mL | MIC Streptococcus pneumoniae (ATCC 6301) (Streptococcus sp.): 0.25 µg/mL (≈ 0.169 µM) | MIC Streptococcus pneumoniae (GC 1894) (Streptococcus sp.): <0.12 µg/mL | MIC Streptococcus pneumoniae (GC 4565) (Streptococcus sp.): 0.25 µg/mL (≈ 0.169 µM) | MIC Streptococcus pyogenes (GC 4563) (Streptococcus sp.): 0.25 µg/mL (≈ 0.169 µM) | MIC Streptococcus pneumoniae (ATCC 6301) (Streptococcus sp.; inoculum 5×10^5 CFU/mL, strain ATCC 6301): 0.25 µg/mL (≈ 0.169 µM) | MIC Streptococcus pneumoniae (GC 1894) (Streptococcus sp.; inoculum 5×10^5 CFU/mL, strain GC 1894): <0.12 µg/mL | MIC Streptococcus pyogenes (GC 4563) (Streptococcus sp.; inoculum 5×10^5 CFU/mL, strain GC 4563): 0.25 µg/mL (≈ 0.169 µM) | MIC Streptococcus agalactiae (GC 4564) (Streptococcus sp.; inoculum 5×10^5 CFU/mL, strain GC 4564): <0.12 µg/mL | MIC Streptococcus pneumoniae (GC 4565) (Streptococcus sp.; inoculum 5×10^5 CFU/mL, strain GC 4565): 0.25 µg/mL (≈ 0.169 µM) | MIC Enterococcus avium (GC 4558) (Enterococcus sp.): 2 µg/mL (≈ 1.35 µM) | MIC Enterococcus faecalis (ATCC 29212) (Enterococcus sp.): 4 µg/mL (≈ 2.7 µM) | MIC Enterococcus faecalis (GC 2242) (Enterococcus sp.): 4 µg/mL (≈ 2.7 µM) | MIC Enterococcus faecalis (GC 2691) (Enterococcus sp.): 4 µg/mL (≈ 2.7 µM) | MIC Enterococcus faecalis (GC 3059) (Enterococcus sp.): 4 µg/mL (≈ 2.7 µM) | MIC Enterococcus faecalis (GC 4552) (Enterococcus sp.): 4 µg/mL (≈ 2.7 µM) | MIC Enterococcus faecalis (GC 4553) (Enterococcus sp.): 2 µg/mL (≈ 1.35 µM) | MIC Enterococcus faecalis (GC 4554) (Enterococcus sp.): 4 µg/mL (≈ 2.7 µM) | MIC Enterococcus faecalis (GC 6189) (Enterococcus sp.): 4 µg/mL (≈ 2.7 µM) | MIC Enterococcus faecium (GC 2243) (Enterococcus sp.): 2 µg/mL (≈ 1.35 µM) | MIC Enterococcus faecium (GC 4556) (Enterococcus sp.): 4 µg/mL (≈ 2.7 µM) | MIC Enterococcus faecium (GC 4557) (Enterococcus sp.): 0.5 µg/mL (≈ 0.337 µM) | MIC Enterococcus faecalis (ATCC 29212) (Enterococcus sp.; inoculum 5×10^5 CFU/mL, strain ATCC 29212): 4 µg/mL (≈ 2.7 µM) | MIC Enterococcus faecalis (GC 2242) (Enterococcus sp.; inoculum 5×10^5 CFU/mL, strain GC 2242): 4 µg/mL (≈ 2.7 µM) | MIC Enterococcus faecium (GC 2243) (Enterococcus sp.; inoculum 5×10^5 CFU/mL, strain GC 2243): 2 µg/mL (≈ 1.35 µM) | MIC Enterococcus faecalis (GC 2691) (Enterococcus sp.; inoculum 5×10^5 CFU/mL, strain GC 2691): 4 µg/mL (≈ 2.7 µM) | MIC Enterococcus faecalis (GC 3059) (Enterococcus sp.; inoculum 5×10^5 CFU/mL, strain GC 3059): 4 µg/mL (≈ 2.7 µM) | MIC Enterococcus faecalis (GC 4552) (Enterococcus sp.; inoculum 5×10^5 CFU/mL, strain GC 4552): 4 µg/mL (≈ 2.7 µM) | MIC Enterococcus faecalis (GC 4553) (Enterococcus sp.; inoculum 5×10^5 CFU/mL, strain GC 4553): 2 µg/mL (≈ 1.35 µM) | MIC Enterococcus faecalis (GC 4554) (Enterococcus sp.; inoculum 5×10^5 CFU/mL, strain GC 4554): 4 µg/mL (≈ 2.7 µM) | MIC Enterococcus faecium (GC 4556) (Enterococcus sp.; inoculum 5×10^5 CFU/mL, strain GC 4556): 4 µg/mL (≈ 2.7 µM) | MIC Enterococcus faecium (GC 4557) (Enterococcus sp.; inoculum 5×10^5 CFU/mL, strain GC 4557): 0.5 µg/mL (≈ 0.337 µM) | MIC Enterococcus avium (GC 4558) (Enterococcus sp.; inoculum 5×10^5 CFU/mL, strain GC 4558): 2 µg/mL (≈ 1.35 µM) | MIC Enterococcus faecalis (GC 6189) (Enterococcus sp.; inoculum 5×10^5 CFU/mL, strain GC 6189): 4 µg/mL (≈ 2.7 µM) | MIC Staphylococcus aureus (ATCC 29213) (Staphylococcus sp.; strain ATCC 29213): 2 µg/mL (≈ 1.35 µM) | MIC Staphylococcus aureus (GC 1131) (Staphylococcus sp.; strain GC 1131): 4 µg/mL (≈ 2.7 µM) | MIC Staphylococcus aureus (GC 3051) (Staphylococcus sp.; strain GC 3051): 2 µg/mL (≈ 1.35 µM) | MIC Staphylococcus aureus (GC 3053) (Staphylococcus sp.; strain GC 3053): 4 µg/mL (≈ 2.7 µM) | MIC Staphylococcus aureus (GC 4541) (Staphylococcus sp.; strain GC 4541): 1 µg/mL (≈ 0.674 µM) | MIC Staphylococcus aureus (GC 4542) (Staphylococcus sp.; strain GC 4542): 4 µg/mL (≈ 2.7 µM) | MIC Staphylococcus aureus-SMITH (GC 4543) (Staphylococcus sp.; strain GC 4543): 2 µg/mL (≈ 1.35 µM) | MIC Staphylococcus aureus (GC 4544) (Staphylococcus sp.; strain GC 4544): 4 µg/mL (≈ 2.7 µM) | MIC Staphylococcus aureus (GC 4545) (Staphylococcus sp.; strain GC 4545): 2 µg/mL (≈ 1.35 µM) | MIC Staphylococcus haemolyticus (GC 4546) (Staphylococcus sp.; strain GC 4546): 1 µg/mL (≈ 0.674 µM) | MIC Coagulase Negative Staphylococcus (GC 4547) (Staphylococcus sp.; strain GC 4547): 2 µg/mL (≈ 1.35 µM) | MIC Coagulase Negative Staphylococcus (GC 4548) (Staphylococcus sp.; strain GC 4548): 1 µg/mL (≈ 0.674 µM) | MIC Coagulase Negative Staphylococcus (GC 4549) (Staphylococcus sp.; strain GC 4549): 1 µg/mL (≈ 0.674 µM) | MIC Coagulase Negative Staphylococcus (GC 4551) (Staphylococcus sp.; strain GC 4551): 2 µg/mL (≈ 1.35 µM) | MIC Escherichia coli (ATCC 25922) (Escherichia coli): 128 µg/mL (≈ 86.3 µM) | MIC Escherichia coli (GC 4559) (Escherichia coli): 64 µg/mL (≈ 43.1 µM) | MIC Escherichia coli (GC 4560) (Escherichia coli): 2 µg/mL (≈ 1.35 µM)
